Here are results for 13 compounds from ChEMBL document CHEMBL2016526, “3-(N-arylsulfamoyl)benzamides, inhibitors of human sirtuin type 2 (SIRT2)” (Bioorg Med Chem Lett, 2012).

The target in experiment [1] is T1, NAD-dependent protein deacetylase sirtuin-2 (Homo sapiens) (UniProt Q8IXJ6).
T1 sequence (whole entry): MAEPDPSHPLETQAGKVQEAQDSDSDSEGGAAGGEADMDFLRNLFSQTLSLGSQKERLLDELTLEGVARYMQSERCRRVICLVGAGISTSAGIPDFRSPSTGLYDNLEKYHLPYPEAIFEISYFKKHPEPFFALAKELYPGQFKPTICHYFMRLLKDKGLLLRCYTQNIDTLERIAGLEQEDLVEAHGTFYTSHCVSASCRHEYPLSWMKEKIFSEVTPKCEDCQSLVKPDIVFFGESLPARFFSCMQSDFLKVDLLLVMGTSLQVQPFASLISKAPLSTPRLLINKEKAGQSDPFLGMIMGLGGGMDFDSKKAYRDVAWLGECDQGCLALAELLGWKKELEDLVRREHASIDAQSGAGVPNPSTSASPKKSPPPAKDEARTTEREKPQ
The experiment is described as follows: Inhibition of recombinant SIRT2 assessed as lysine deacetylation at 50 uM relative to control. The arrangement: scale not given: the % may be the effect or the level left.

The target in experiment [2] is T2, NAD-dependent protein deacetylase sirtuin-3, mitochondrial (Homo sapiens) (UniProt Q9NTG7).
T2 sequence (whole entry): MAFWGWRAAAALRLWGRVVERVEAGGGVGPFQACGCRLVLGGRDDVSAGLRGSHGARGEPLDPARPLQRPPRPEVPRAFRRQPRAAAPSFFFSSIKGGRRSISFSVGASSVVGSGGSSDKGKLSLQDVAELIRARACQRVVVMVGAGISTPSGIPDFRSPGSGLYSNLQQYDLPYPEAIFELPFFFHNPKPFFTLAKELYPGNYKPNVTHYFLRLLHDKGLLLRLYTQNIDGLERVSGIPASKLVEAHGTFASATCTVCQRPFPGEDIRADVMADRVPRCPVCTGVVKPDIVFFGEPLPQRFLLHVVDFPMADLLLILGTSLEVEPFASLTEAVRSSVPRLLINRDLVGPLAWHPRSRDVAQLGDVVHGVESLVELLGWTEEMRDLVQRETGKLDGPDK
The experiment is described as follows: Inhibition of recombinant SIRT3 assessed as lysine deacetylation at 10 uM relative to control.

In experiment [3] the target is T3, NAD-dependent protein deacetylase sirtuin-1 (Homo sapiens) (UniProt Q96EB6).
T3 sequence (whole entry): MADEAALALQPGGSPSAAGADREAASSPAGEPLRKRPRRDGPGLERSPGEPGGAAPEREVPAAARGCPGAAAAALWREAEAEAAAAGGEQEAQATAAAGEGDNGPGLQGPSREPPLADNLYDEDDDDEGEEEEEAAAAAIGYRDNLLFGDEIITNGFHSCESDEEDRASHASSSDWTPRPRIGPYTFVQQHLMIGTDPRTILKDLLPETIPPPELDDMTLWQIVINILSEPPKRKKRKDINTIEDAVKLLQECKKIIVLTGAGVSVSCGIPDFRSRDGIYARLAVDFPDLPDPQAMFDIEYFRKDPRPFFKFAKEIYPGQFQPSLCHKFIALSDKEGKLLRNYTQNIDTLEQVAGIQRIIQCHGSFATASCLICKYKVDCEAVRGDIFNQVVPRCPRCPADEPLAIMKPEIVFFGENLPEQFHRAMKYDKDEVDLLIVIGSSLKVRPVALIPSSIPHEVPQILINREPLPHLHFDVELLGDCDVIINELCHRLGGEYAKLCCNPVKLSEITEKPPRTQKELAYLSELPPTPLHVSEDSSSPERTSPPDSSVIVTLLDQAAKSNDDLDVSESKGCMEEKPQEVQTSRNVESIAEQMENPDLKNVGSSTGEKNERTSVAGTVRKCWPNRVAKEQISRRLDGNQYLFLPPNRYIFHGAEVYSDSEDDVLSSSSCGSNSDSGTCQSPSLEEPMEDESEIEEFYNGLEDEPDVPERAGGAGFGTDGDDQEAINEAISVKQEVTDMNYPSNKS
The experiment is described as follows: Inhibition of recombinant SIRT1 assessed as lysine deacetylation at 10 uM.

The target of experiment [4] is T1, NAD-dependent protein deacetylase sirtuin-2 (Homo sapiens). The experiment is described as follows: Inhibition of recombinant SIRT2 assessed as lysine deacetylation at 1 to 50 uM.
Experiment [5] shares this target. The experiment is described as follows: Inhibition of recombinant SIRT2 assessed as lysine deacetylation at 25 uM relative to control. The arrangement: scale not given: the % may be the effect or the level left.
Experiment [6] addresses T3, NAD-dependent protein deacetylase sirtuin-1 (Homo sapiens). The experiment is described as follows: Inhibition of recombinant SIRT1 assessed as lysine deacetylation up to 50 uM.
Experiment [7] deals with T2, NAD-dependent protein deacetylase sirtuin-3, mitochondrial (Homo sapiens). The experiment is described as follows: Inhibition of recombinant SIRT3 assessed as lysine deacetylation up to 50 uM.
Experiment [8] deals with T1, NAD-dependent protein deacetylase sirtuin-2 (Homo sapiens). The experiment is described as follows: Inhibition of recombinant SIRT2 assessed as lysine deacetylation at 6.25 to 25 uM.
Experiment [9] shares this target. The experiment is described as follows: Inhibition of recombinant SIRT2 assessed as lysine deacetylation at 10 uM relative to control. More on the design: scale not given: the % may be the effect or the level left.

The structures appear in SMILES notation. Calls of active or inactive are those of the source. No cut-off for these calls is given here.

By inhibition is commonly meant the percentage by which the read-out fell short of the control.

As for `CN(C(=O)c1cccc(S(=O)(=O)N(C)c2ccc(Br)cc2)c1)c1ccc(C(F)(F)F)cc1`, the Activity in experiment [1] worked out at 76%.

For `CN(C(=O)c1cccc(S(=O)(=O)N(C)c2ccc(Cl)cc2)c1)c1ccc(Cl)cc1`, the inhibition in experiment [2] amounted to 5%. Moreover, in experiment [3], the inhibition entry was “inactive”. Besides, the inhibition entry in [4] is “Active”.

In the case of `CCN(c1ccc(Br)cc1)S(=O)(=O)c1cccc(C(=O)Nc2ccc(Br)cc2)c1`, in experiment [5], the Activity is 82%.

On to `CN(c1ccc(Br)cc1)S(=O)(=O)c1cccc(C(=O)Nc2ccc(Br)cc2)c1`, for which the inhibition result in experiment [6] and in experiment [7] was “inactive” throughout. In addition, in experiment [5], the Activity was 56%. The inhibition result in experiment [8] is “Active”.

For the compound `C=CCN(c1ccc(Br)cc1)S(=O)(=O)c1cccc(C(=O)Nc2ccc(Br)cc2)c1`, in experiment [5], the Activity was 92%.

Take `O=C(Nc1ccc(Br)cc1)c1cccc(S(=O)(=O)N(Cc2ccccc2)c2ccc(Br)cc2)c1`: the Activity in [5] worked out at 80%.

For `CN(C(=O)c1cccc(S(=O)(=O)N(C)c2ccc(Cl)cc2)c1)c1ccc(Br)cc1`, in experiment [9], the Activity amounted to 72%.

As for `CN(C(=O)c1cccc(S(=O)(=O)N(C)c2ccc(Br)cc2)c1)c1ccc(F)cc1`, the Activity in experiment [1] came to 57%.

Consider `CN(C(=O)c1cccc(S(=O)(=O)N(C)c2ccc(Br)cc2)c1)c1ccc(Cl)cc1`, for which the inhibition result in [2] and in experiment [3] was “inactive” in each case. Besides, the Activity in experiment [9] is 54%. For the same compound, the inhibition entry in experiment [4] is “Active”.

Regarding `CN(C(=O)c1cccc(S(=O)(=O)N(C)c2ccc(C(F)(F)F)cc2)c1)c1ccc(Br)cc1`, the inhibition entry in experiment [2] and in [3] was “inactive” in each case. For the same compound, the Activity in experiment [9] was found to be 55%.

Consider `O=C(Nc1ccc(Br)cc1)c1cccc(S(=O)(=O)Nc2ccc(Br)cc2)c1`, for which the Activity in [5] is 85%.

As to `CN(C(=O)c1cccc(S(=O)(=O)N(C)c2ccc(Br)cc2)c1)c1ccc(Br)cc1`, the inhibition result in experiment [6] and in [7] was “inactive” each time. For the same compound, the inhibition entry in experiment [4] and in experiment [8] was “Active” throughout.

Turning to `O=C(Nc1cccc([N+](=O)[O-])c1)c1cccc(S(=O)(=O)N2CCCCCC2)c1`, in [6], the inhibition entry was “Active”.
